Literature values, collected in paper PMC3744102 (2010).
Where “and” joins values, the source holds several entries; their conditions need not be identical. Equal values may be shown once. Entries after “also recorded” stand apart in the source; their conditions may differ.

For Y-G-G-F-L-R-R-I-R-P-K-L-K-W-D-N-Q, the cleaved bond (human blood) is listed as “Arg6-Arg7, major; also recorded: Tyr1-G2, major”, the fragment found (human blood) is listed as 3–17 and 4–17 and 2–6 and 8–17 and 9–17 and 11–17 and the cleaved bond (rhesus monkey blood) is listed as “Arg6-Arg7, major; also recorded: Tyr1-G2, major”. The fragment found (rhesus monkey blood) was 2–6 and 8–17 and 9–17 and 11–17 and 3–17 and 4–17.
